The values that follow come from US20240308960A1 (Sumitomo Pharma Co., Ltd., priority 2021, published 2024).

The target of the first assay is T1, Human orexin receptor type 2 (Homo sapiens, UniProt O43614).
T1 sequence (O43614 1-444): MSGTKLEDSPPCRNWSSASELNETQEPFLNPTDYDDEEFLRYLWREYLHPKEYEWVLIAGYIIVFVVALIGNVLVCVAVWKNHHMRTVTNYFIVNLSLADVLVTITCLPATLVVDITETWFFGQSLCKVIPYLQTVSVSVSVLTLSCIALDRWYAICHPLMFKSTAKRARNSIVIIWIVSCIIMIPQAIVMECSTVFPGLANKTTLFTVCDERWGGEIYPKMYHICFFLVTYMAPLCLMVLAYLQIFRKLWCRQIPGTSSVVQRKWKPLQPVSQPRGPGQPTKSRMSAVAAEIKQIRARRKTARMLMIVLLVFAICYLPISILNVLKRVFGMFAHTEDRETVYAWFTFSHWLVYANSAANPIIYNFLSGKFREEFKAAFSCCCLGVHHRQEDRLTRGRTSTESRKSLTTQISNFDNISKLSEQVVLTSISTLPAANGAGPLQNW
As to the kind of experiment: Test Example 2: agonist activity for orexin receptor type 2 (aequorin luminescence, intracellular calcium mobilization). Details: expressed in transfected cells; host or cells: CHO cells (transient expression). The format is cell-based. The following applies: compound 10 μm; CHO cells transiently expressing human orexin receptor type 2 and apoaequorin; relative percentage of luminescence for the luminescence (100%) of Orexin A (100 pM). As for the experimental part: Test Example 2: Measurement of Agonist Activity for Orexin Receptor 2 Type
Human orexin receptor type 2 and apoaequorin were transiently expressed in CHO cells, and the agonist activity was evaluated based on intracellular calcium mobilization with ligand stimulation. The CHO cells transiently-expressed human orexin receptor type 2 and apoaequorin were seeded on a 384-well plate by 2,000 cells/well, and then incubated for 16-22 hours. After the plate was returned to room temperature, Coelenterazine hcp (final concentration: 1 μM) was added to the plate, and the plate was allowed to stand at room temperature for 2 hours. And then, Orexin A (PEPTIDE INSTITUTE, INC., Lot. 671009) or each test compound was added to the plate, and the luminescence of the cells was measured with FDSS7000 (Hamamatsu Photonics K. K.), wherein Orexin A and each test compound were dissolved in DMSO (final concentration: 0.1%), and diluted with a buffer (Hanks, 20 mM HEPES, 0.1% BSA).
On the technique in general: Calcium assays in cells follow changes in intracellular calcium, usually with a dye or a luminescent sensor.
Regarding `CC(C)N1CCN(c2cccc(Cl)c2NC(=O)N2C[C@H]3C[C@@H](c4noc(C5CC5)n4)C[C@H]3C2)CC1` [Example 170, (3aR,5r,6aS)-N-{2-chloro-6-[4-(propan-2-yl)piperazin-1-yl]phenyl}-5-(5-cyclopropyl-1,2,4-oxadiazol-13-yl) hexahydrocyclopenta [c]pyrrol-2 (1H)-carboxamide], the “Agonist Activity (%)” value is listed as 357%.

For `CC(C)N1CCN(c2cccc(Cl)c2NC(=O)N2C[C@H]3C[C@H](c4noc(C5CC5)n4)C[C@H]3C2)CC1` [Example 169, (3aR,5s,6aS)-N-{2-chloro-6-[4-(propan-2-yl)piperazin-1-yl]phenyl}-5-(5-cyclopropyl-1,2,4-oxadiazol-13-yl) hexahydrocyclopenta [c]pyrrol-2 (1H)-carboxamide], the “Agonist Activity (%)” value was 444%.

The target of the next assay is T1, Human orexin receptor type 2. As to the kind of experiment: Test Example 1: agonist activity for orexin receptor type 2 (aequorin luminescence, intracellular calcium mobilization). The conditions noted are these: compound 10 μm; CHO cells transiently expressing human orexin receptor type 2 and apoaequorin; relative percentage of luminescence for the luminescence (100%) of Orexin A (100 μM).
As to `CCN1C[C@@H]2C[C@H]1CN2c1cccc(F)c1NC(=O)N1CCC(C)(c2noc(C3CC3)n2)CC1` [Example 149, 4-(5-cyclopropyl-1,2,4-oxadiazol-3-yl)-N-{2-[(1S,4S)-5-ethyl-2,5-diazabicyclo[2.2.1]heptan-2-yl]-6-fluorophenyl}-4-methylpiperidine-1-carboxamide], the “Agonist Activity (%)” value came out at 146%.

Regarding `CC(C)[C@@H]1CO[C@H](c2cccc(Cl)c2NC(=O)N2CCC(C)(c3noc(C4CC4)n3)CC2)CN1` (racemic) [Example 168, Rac-N-{2-chloro-6-[(2R,5R)-5-(propan-2-yl)morpholin-2-yl]phenyl}-4-(5-cyclopropyl-1,2,4-oxadiazol-3-yl)-4-methylpiperidine-1-carboxamide], the “Agonist Activity (%)” value is reported as 184%.

Turning to `CC(CF)N1CC=C(c2cccc(Cl)c2NC(=O)N2CCC(C)(c3cc(C4CC4)on3)CC2)CC1` (stereo not drawn) [Example 141, N-{2-chloro-6-[1-(1-fluoropropan-2-yl)-1,2,3,6-tetrahydropyridin-4-yl]phenyl}-4-(5-cyclopropyl-1,2-oxazol-3-yl)-4-methylpiperidine-1-carboxamide], the “Agonist Activity (%)” value was 121%.

Take `Cc1ccc(C2CCN(C(=O)Nc3c(F)cccc3C3=CCN(C(C)C)C3)CC2)cc1` [Example 139, N-{2-fluoro-6-[1-(propan-2-yl)-2,5-dihydro-1H-pyrrol-3-yl]phenyl}-4-(4-methylphenyl)piperidine-1-carboxamide]: the “Agonist Activity (%)” value came out at 121%.

On to `Cc1ccc(C2CCN(C(=O)Nc3ccccc3N3CCN(C(C)C)CC3C)CC2)cc1` (racemic) [Example 30, Rac-4-(4-methylphenyl)-N-{2-[2-methyl-4-(propan-2-yl)piperazin-1-yl]phenyl}piperidine-1-carboxamide], for which the “Agonist Activity (%)” value is reported as 36%.

As for `CC(C)N1CCN(c2cccc(Cl)c2NC(=O)N2CCC(C)(c3noc([C@H]4C[C@H]4C)n3)CC2)CC1` [Example 117, N-{2-chloro-6-[4-(propan-2-yl)piperazin-1-yl]phenyl}-4-methyl-4-{5-[(1S,2R)-2-methylcyclopropyl]-1,2,4-oxadiazol-3-yl}piperidine-1-carboxamide], the “Agonist Activity (%)” value is listed as 158%.

Consider `CC(C)N1CC=C(c2cccc(F)c2NC(=O)N2CCC(C)(c3noc(C4CC4)n3)CC2)CC1` [Example 44, 4-(5-cyclopropyl-1,2,4-oxadiazol-3-yl)-N-{2-fluoro-6-[1-(propan-2-yl)-1,2,3,6-tetrahydropyridin-4-yl]phenyl}-4-methylpiperidine-1-carboxamide], for which the “Agonist Activity (%)” value is recorded as 143%.

Take `CCc1nc(C2(C)CCN(C(=O)Nc3c(F)cccc3N3CCN(C(C)C)CC3)CC2)no1` [Example 82, 4-(5-ethyl-1,2,4-oxadiazol-3-yl)-N-{2-fluoro-6-[4-(propan-2-yl)piperazin-1-yl]phenyl}-4-methylpiperidine-1-carboxamide]: the “Agonist Activity (%)” value was found to be 156%.

`CC(C)c1nc(C2(C)CCN(C(=O)Nc3c(F)cccc3N3CCN(C(C)C)CC3)CC2)no1` [Example 20, N-{2-fluoro-6-[4-(propan-2-yl)piperazin-1-yl]phenyl}-4-methyl-4-[5-(propan-2-yl)-1,2,4-oxadiazol-3-yl]piperidine-1-carboxamide]: the “Agonist Activity (%)” value came out at 111%.

For `Cc1ccc(C2CCN(C(=O)Nc3c(N4CCN(C(C)C)CC4)cccc3C(F)(F)F)CC2)cc1` [Example 34, 4-(4-methylphenyl)-N-{2-[4-(propan-2-yl)piperazin-1-yl]-6-(trifluoromethyl)phenyl}piperidine-1-carboxamide], the “Agonist Activity (%)” value is 161%.

With `CC(C)N1CCN(c2cccc(Cl)c2NC(=O)N2CCC(C)(c3cc(C4CC4)on3)CC2)CC1` [Example 61, N-{2-chloro-6-[4-(propan-2-yl)piperazin-1-yl]phenyl}-4-(5-cyclopropyl-1,2-oxazol-3-yl)-4-methylpiperidine-1-carboxamide], the “Agonist Activity (%)” value came to 156%.

Take `CC(C)N1CCN(c2cccc(Cl)c2NC(=O)N2CCC(C)(c3noc(C4(C(F)(F)F)CC4)n3)CC2)CC1` [Example 107, N-{2-chloro-6-[4-(propan-2-yl)piperazin-1-yl]phenyl}-4-methyl-4-{5-[1-(trifluoromethyl)cyclopropyl]-1,2,4-oxadiazol-3-yl}piperidine-1-carboxamide]: the “Agonist Activity (%)” value came out at 163%.

Turning to `Cc1ccc(C2CC3CCC(C2)N3C(=O)Nc2c(F)cccc2N2CCN(C(C)C)CC2)cc1` (stereo not drawn) [Example 41, N-{2-fluoro-6-[4-(propan-2-yl)piperazin-1-yl]phenyl}-3-(4-methylphenyl)-8-azabicyclo[3.2.1]octane-8-carboxamide], the “Agonist Activity (%)” value is recorded as 47%.

With `CC(C)N1CCC(Oc2cccc(Cl)c2NC(=O)N2CCC(C)(c3noc(C4CC4)n3)CC2)C1` (racemic) [Example 110, Rac-N-(2-chloro-6-{[1-(propan-2-yl)pyrrolidin-3-yl]oxy}phenyl)-4-(5-cyclopropyl-1,2,4-oxadiazol-3-yl)-4-methylpiperidine-1-carboxamide], the “Agonist Activity (%)” value was 148%.

On to `Cc1ccc(C2CCN(C(=O)Nc3c(C)cccc3N3CCN(C(C)C)CC3)CC2)cc1` [Example 17, 4-(4-methylphenyl)-N-{2-methyl-6-[4-(propan-2-yl)piperazin-1-yl]phenyl}piperidine-1-carboxamide], for which the “Agonist Activity (%)” value is given as 133%.

For the compound `CC(C)N1CCN(c2cccc(F)c2NC(=O)N2CCC(Oc3ccccc3)CC2)CC1` [Example 27, N-{2-fluoro-6-[4-(propan-2-yl)piperazin-1-yl]phenyl}-4-phenoxypiperidine-1-carboxamide], the “Agonist Activity (%)” value is listed as 129%.

Turning to `CC(C)N1CCN(c2ccccc2NC(=O)N2CCC(C#N)(c3ccccc3)CC2)CC1.Cl` [Example 6, 4-cyano-4-phenyl-N-{2-[4-(propan-2-yl)piperazin-1-yl]phenyl}piperidine-1-carboxamide], the “Agonist Activity (%)” value came to 151%.

`CC(C)N1CCN(c2cccc(Cl)c2NC(=O)N2CCC(C)(c3noc([C@@H]4C[C@@H]4C)n3)CC2)CC1` [Example 118, N-{2-chloro-6-[4-(propan-2-yl)piperazin-1-yl]phenyl}-4-methyl-4-{5-[(1R,2S)-2-methylcyclopropyl]-1,2,4-oxadiazol-3-yl}piperidine-1-carboxamide]: the “Agonist Activity (%)” value came to 149%.

Take `CC(C)N1CCN(c2ccccc2NC(=O)N2CCC(C)(c3ccccc3)CC2)CC1` [Example 5, 4-methyl-4-phenyl-N-{2-[4-(propan-2-yl)piperazin-1-yl]phenyl}piperidine-1-carboxamide]: the “Agonist Activity (%)” value amounted to 156%.

Turning to `Cc1ccc(C2CCN(C(=O)Nc3c(F)cccc3C3=CCN(C(C)CF)CC3)CC2)cc1` (stereo not drawn) [Example 134, N-{2-fluoro-6-[1-(1-fluoropropan-2-yl)-1,2,3,6-tetrahydropyridin-4-yl]phenyl}-4-(4-methylphenyl)piperidine-1-carboxamide], the “Agonist Activity (%)” value worked out at 135%.

Take `CC(C)N1CCC(c2cccc(F)c2NC(=O)N2CCC(C)(c3nc4ccccc4o3)CC2)CC1` [Example 49, 4-(1,3-benzoxazol-2-yl)-N-{2-fluoro-6-[1-(propan-2-yl)piperidin-4-yl]phenyl}-4-methylpiperidine-1-carboxamide]: the “Agonist Activity (%)” value was 196%.

In the case of `CC(C)N1CCN(c2cccc(Cl)c2NC(=O)N2CCC(C)(c3noc(CC(F)(F)F)n3)CC2)CC1` [Example 119, N-{2-chloro-6-[4-(propan-2-yl)piperazin-1-yl]phenyl}-4-methyl-4-[5-(2,2,2-trifluoroethyl)-1,2,4-oxadiazol-3-yl]piperidine-1-carboxamide], the “Agonist Activity (%)” value was 154%.
